Experimental data: patent US5596002A, “Method of treating chloroquine-resistant malaria with aminoquinoline derivatives” (Hoffmann-La Roche Inc., priority 1993, dated 1997)
In brackets after ≈: the same amount, converted by molar mass. Where two headings read alike, the source gives them in different places.

Key:
[1] = system: Plasmodium falciparum, chloroquine-sensitive strain NF54; assay: activity against P. falciparum in vitro, strain NF54; type: cell-based; details: chloroquine-sensitive strain NF54, 48 h-72 h; for IC50: Plasmodium falciparum, read-out: IC50 (50% growth inhibition)
Protocol: (§1) Test method for the determination of the activity against P. falciparum in vitro
(§2) The preparations of the present invention were tested on intraerythrocytary stages of P. falciparum from asynchronous cultures according to the method of Desjardin et al. (Desjardins, R. E. et al: Quantitative assessment of antimalarial activity in vitro by a semiautomated microdilution technique. Antimicrob. Agents Chemother. 16, 710-718, (1979)).
(§3) The culture medium consisted of RPMI 1640 with the addition of 25 mM HEPES, 25 mM NaHCO3, […] neomycin and 10% human serum (A^+). Human-A^+ erythrocytes were used as the P. falciparum host cells. The parasites were maintained at 37° C. in an atmosphere of 3% O2, 4% CO2, 93% N2 and at 95% relative humidity.
(§4) In order to determine the activity, the preparations were dissolved in DMSO, pre-diluted in the culture medium to a suitable starting concentration and subsequently titrated-out into microtitre plates in the 2nd stage over 6-7 steps. After the addition of the parasite culture (0.7% parasitemia in 2.5% erythrocyte suspension), the test plates were incubated under the conditions given above for 48 h-72 h. The parasite growth in the different preparation concentrations was determined using [G-^3 H]-hypoxanthin incorporation compared to untreated control cultures on the same test plates. The 50% growth inhibition (IC50) was calculated according to logit regression analysis from the resulting dosage-activity curve.
(§5) The preparations were tested on at least one chloroquine-resistant and one chloroquine-sensitive P. falciparum strain. Additional sensitive and resistant strains were also included for further characterization.
(§6) Table 1 below contains the IC50 values measured in vitro for the growth inhibition of chloroquine-sensitive and chloroquine-resistant strains of the human pathogenic Plasmodium falciparum.

[2] = system: Plasmodium falciparum, chloroquine-sensitive strain FCH5C2; assay: activity against P. falciparum in vitro, strain FCH5C2; type: cell-based; details: chloroquine-sensitive strain FCH5C2, 48 h-72 h, read-out: IC50 (50% growth inhibition)
Protocol: as §1, §2, §3, §4, §5, §6

[3] = system: Plasmodium falciparum, chloroquine-sensitive strain HB3; assay: activity against P. falciparum in vitro, strain HB3; type: cell-based; details: chloroquine-sensitive strain HB3, 48 h-72 h, read-out: IC50 (50% growth inhibition)
Protocol: as §1, §2, §3, §4, §5, §6

[4] = system: Plasmodium falciparum, chloroquine-resistant strain RFCR3; assay: activity against P. falciparum in vitro, strain RFCR3; type: cell-based; details: chloroquine-resistant strain RFCR3, 48 h-72 h, read-out: IC50 (50% growth inhibition)
Protocol: as §1, §2, §3, §4, §5, §6

[5] = system: Plasmodium falciparum, chloroquine-resistant strain ItG2 F6; assay: activity against P. falciparum in vitro, strain ItG2 F6; type: cell-based; details: chloroquine-resistant strain ItG2 F6, 48 h-72 h, read-out: IC50 (50% growth inhibition)
Protocol: as §1, §2, §3, §4, §5, §6

[6] = system: Plasmodium falciparum, chloroquine-resistant strain Indo; assay: activity against P. falciparum in vitro, strain Indo; type: cell-based; details: chloroquine-resistant strain Indo, 48 h-72 h, read-out: IC50 (50% growth inhibition)
Protocol: as §1, §2, §3, §4, §5, §6

[7] = system: Plasmodium falciparum, chloroquine-resistant strain K1; assay: activity against P. falciparum in vitro, strain K1; type: cell-based; details: chloroquine-resistant strain K1, 48 h-72 h; for IC50: Plasmodium falciparum, read-out: IC50 (50% growth inhibition)
Protocol: as §1, §2, §3, §4, §5, §6

[8] = system: Plasmodium falciparum, chloroquine-resistant strain W2; assay: activity against P. falciparum in vitro, strain W2; type: cell-based; details: chloroquine-resistant strain W2, 48 h-72 h, read-out: IC50 (50% growth inhibition)
Protocol: as §1, §2, §3, §4, §5, §6

[9] = system: Plasmodium falciparum, chloroquine-resistant strain 7G8; assay: activity against P. falciparum in vitro, strain 7G8; type: cell-based; details: chloroquine-resistant strain 7G8, 48 h-72 h, read-out: IC50 (50% growth inhibition)
Protocol: as §1, §2, §3, §4, §5, §6

[10] = system: Plasmodium falciparum, chloroquine-resistant strain W2 Mef; assay: activity against P. falciparum in vitro, strain W2 Mef; type: cell-based; details: 48 h-72 h, read-out: IC50 (50% growth inhibition)
Protocol: as §1, §2, §3, §4, §5, §6

[11] = system: Plasmodium berghei (strain ANKA); assay: activity against Plasmodium berghei in vivo (infected mice); details: mice; for ED50: single administration po, dose reducing average erythrocyte infection rate by 50%, read-out: ED50 (po); for inhibition in vivo at 10 mg/kg: 48 hours after treatment (D+3)
Protocol: Test method for the determination of the activity against Plasmodium berghei in vivo
The preparations according to the present invention were tested on mice infected with malaria pathogens (Plasmodium berghei). Male albino mice (IBM:MORO(SPF), FUELLINSDORF) weighing about 25 g were used as the test animals. They were kept in climatized rooms at 21°-22° C. in groups of 5 animals per cage. They received ad libitum a diet feed with a low PABA content ("NAFAG FUTTER" No. 9009 PAB-45, PABA content 45 mg/kg) and drinking water. On the first day of the test (D0) the test animals were infected with Plasmodium berghei (strain ANKA). For this there was used heparinized blood of a donor mouse with about 30% parasitemia, which was diluted with physiological saline such that it contains 10^8 parasitized erythrocytes per ml. 0.2 ml of this suspension was injected intravenously (i.v.) into the mice to be treated and into the control mice. In untreated control animals the parasitemia normally reaches 30-40% on the third day after the infection (D+3) and the test animals die between days +5 and +7.
The substances to be tested were dissolved or suspended in distilled water or in a mixture of 7% Tween 80, 3% alcohol (96%) and water. Usually, 0.25 ml of this solution or suspension was administered once subcutaneously and perorally to groups of 5 test animals. Treatment was effected 24 hours after the infection. 10 control animals were treated in the same manner with solvent or suspension medium per test.
All substances were tested in a first test in a single dosage of 10 mg/kg. Only those substances which in this test (10 mg/kg) had shown a parasitaemia reduction of 90% were used for the titration.
48 hours after the treatment (D+3), blood smears were prepared from all animals using blood from tail veins and were stained with Giemsa. The average erythrocyte infection rate (parasitemia in %) in the control groups as well as in the groups which had been treated with the test compounds was determined by counting under a microscope. The difference in the average values of the infection rates of control group (100%) and treated groups was calculated and expressed as a percentage reduction (GI %). The ED50 or ED90 was determined mathematically by means of the JMP programme (nonlinear fit). The ED50 (ED90) in mg/kg is that dose which after single administration reduces the average erythrocyte infection rate by 50% (90%) in comparison to the control group.
Table 2 below contains data with respect to the activity measured against Plasmodium berghei in mice: GI % is the percentage reduction in the parasitemia after a single dose of 10 mg/kg of the test substance administered perorally (po) or subcutaneously (sc); ED50 and ED90 are the effective doses of the test substance administered perorally or subcutaneously.

[12] = single dose 10 mg/kg po, read-out: GI % at 10 mg/kg (po): percentage reduction in the parasitemia
[13] = single dose 10 mg/kg sc, read-out: GI % at 10 mg/kg (sc): percentage reduction in the parasitemia

Compound	IC50 [1]	IC50 [2]	IC50 [3]	IC50 [4]	IC50 [5]	IC50 [6]	IC50 [7]	IC50 [8]	IC50 [9]	IC50 [10]	ED50 [11]	inhibition in vivo at 10 mg/kg [11, 12]	inhibition in vivo at 10 mg/kg [11, 13]	IC50 (50% growth inhibition) [1]	IC50 (50% growth inhibition) [7]
CN(C)CCNc1ccnc2cc(Cl)ccc12 [Example 5, N2-(7-Chloro-quinolin-4-yl)-N1,N1-dimethyl-ethane-1,2-diamine]	4 ng/mL (≈ 0.016 µM)	9 ng/mL (≈ 0.036 µM)	6 ng/mL (≈ 0.024 µM)	6 ng/mL (≈ 0.024 µM)	4 ng/mL (≈ 0.016 µM)	4 ng/mL (≈ 0.016 µM)	7 ng/mL (≈ 0.028 µM)	7 ng/mL (≈ 0.028 µM)	7 ng/mL (≈ 0.028 µM)	9 ng/mL (≈ 0.036 µM)	3.3 mg/kg	99.5%	99%		
CCN(CC)CCNc1ccnc2cc(Cl)ccc12 [Example 6, N2-(7-Chloro-quinolin-4-yl)-N1,N1-diethyl-ethane-1,2-diamine]	5 ng/mL (≈ 0.018 µM)	8 ng/mL (≈ 0.0288 µM)	8 ng/mL (≈ 0.0288 µM)	8 ng/mL (≈ 0.0288 µM)	5 ng/mL (≈ 0.018 µM)	4 ng/mL (≈ 0.0144 µM)	9 ng/mL (≈ 0.0324 µM)	8 ng/mL (≈ 0.0288 µM)	9 ng/mL (≈ 0.0324 µM)		3.5 mg/kg	99%	99%		
Clc1ccc2c(NCCN3CCCC3)ccnc2c1 [Example 7, (7-Chloro-quinolin-4-yl)-(2-pyrrolidin-1-yl-ethyl)-amine]	4 ng/mL (≈ 0.0145 µM)	7 ng/mL (≈ 0.0254 µM)	6 ng/mL (≈ 0.0218 µM)	7 ng/mL (≈ 0.0254 µM)	5 ng/mL (≈ 0.0181 µM)	4 ng/mL (≈ 0.0145 µM)	8 ng/mL (≈ 0.029 µM)	7 ng/mL (≈ 0.0254 µM)	8 ng/mL (≈ 0.029 µM)	8 ng/mL (≈ 0.029 µM)					
CN(C)CCCNc1ccnc2cc(Cl)ccc12 [Example 15, N3-(7-Chloro-quinolin-4-yl)-N1,N1-dimethyl-propane-1,3-diamine]	2 ng/mL (≈ 0.00758 µM)	5 ng/mL (≈ 0.019 µM)	3 ng/mL (≈ 0.0114 µM)	5 ng/mL (≈ 0.019 µM)	3 ng/mL (≈ 0.0114 µM)	3 ng/mL (≈ 0.0114 µM)	6 ng/mL (≈ 0.0227 µM)	7 ng/mL (≈ 0.0265 µM)	7 ng/mL (≈ 0.0265 µM)	12 ng/mL (≈ 0.0455 µM)	2 mg/kg	99.8%	99.9%		
CCN(CC)CCCNc1ccnc2cc(Cl)ccc12 [Example 16, N3-(7-Chloro-quinolin-4-yl)-N1,N1-diethyl-propane-1,3-diamine]	3 ng/mL (≈ 0.0103 µM)	6 ng/mL (≈ 0.0206 µM)	5 ng/mL (≈ 0.0171 µM)	8 ng/mL (≈ 0.0274 µM)	5 ng/mL (≈ 0.0171 µM)	4 ng/mL (≈ 0.0137 µM)	9 ng/mL (≈ 0.0308 µM)	9 ng/mL (≈ 0.0308 µM)	9 ng/mL (≈ 0.0308 µM)		2 mg/kg	99.9%	99.9%		
C[C@@H](CN(C)C)Nc1ccnc2cc(Cl)ccc12 [Example 33c, (S)-N2-(7-Chloro-quinolin-4-yl)-N1,N1-dimethyl-propane-1,2-diamine]	8 ng/mL (≈ 0.0303 µM)						24 ng/mL (≈ 0.091 µM)				1.9 mg/kg	99.9%	99.9%		
C[C@H](CN(C)C)Nc1ccnc2cc(Cl)ccc12 [Example 33d, (R)-N2-(7-Chloro-quinolin-4-yl)-N1,N1-dimethyl-propane-1,2-diamine]	8 ng/mL (≈ 0.0303 µM)						23 ng/mL (≈ 0.0872 µM)				2.2 mg/kg	99.9%	99.9%		
CCN(CC)C[C@H](C)Nc1ccnc2cc(Cl)ccc12 [Example 33e, (S)-N2-(7-Chloro-quinolin-4-yl)-N1,N1-diethyl-propane-1,2-diamine]	12 ng/mL (≈ 0.0411 µM)						53 ng/mL (≈ 0.182 µM)				3.1 mg/kg	99.8%	99.9%		
CCN(CC)C[C@@H](C)Nc1ccnc2cc(Cl)ccc12 [Example 33f, (R)-N2 (7-Chloro-quinolin-4-yl)-N1,N1-diethyl-propane-1,2-diamine]	12 ng/mL (≈ 0.0411 µM)						41 ng/mL (≈ 0.14 µM)				2.8 mg/kg	99.8%	99.9%		
C[C@@H](CNc1ccnc2cc(Cl)ccc12)N(C)C [Example 33g, (S)-N1-(7-chloro-quinoline-4-yl)-N2,N2-dimethyl-propane-1,2-diamine]	5 ng/mL (≈ 0.019 µM)						17 ng/mL (≈ 0.0644 µM)								
(R)-N1 -(7-Chloro-quinolin-4-yl)-N2,N2 -dimethyl-propane-1,2-diamine [Example 33h]														7 ng/mL	18 ng/mL
